Assay results: the NIST ThermoML archive (doi:10.1021/je1005517)
Numbers after ± are expanded uncertainties.

Experiment: activity coefficient (dimensionless); of the first substance listed, at infinite dilution; xn = mol fraction of the nth substance listed
Conditions: Liquid, GC, x1 = 0

Row | Structure (SMILES) | activity coefficient (338.15 K, 101 kPa) | activity coefficient (343.15 K, 101 kPa) | activity coefficient (348.15 K, 101 kPa) | activity coefficient (353.15 K, 101 kPa) | activity coefficient (333.15 K, 101 kPa) | activity coefficient (333.15 K, 101.3 kPa) | activity coefficient (338.15 K, 101.3 kPa) | activity coefficient (343.15 K, 101.3 kPa) | activity coefficient (348.15 K, 101.3 kPa) | activity coefficient (353.15 K, 101.3 kPa)
1 | C=CCCC [1-pentene] + CCCCCCCCCCCCCCCCCCCCO | 0.0813 ± 0.0049 | 0.0742 ± 0.0045 | 0.0664 ± 0.004 | 0.06 ± 0.0036 | – | – | – | – | – | –
2 | C1CCCCC1 [cyclohexane] + CCCCCCCCCCCCCCCCCCO | 0.0337 ± 0.002 | 0.0315 ± 0.0019 | 0.0294 ± 0.0018 | 0.0274 ± 0.0016 | 0.0365 ± 0.0022 | – | – | – | – | –
3 | CCCO [propan-1-ol] + CCCCCCCCCCCCCCCCCCO | – | – | – | – | – | 0.0722 ± 0.0043 | 0.0625 ± 0.0038 | 0.0597 ± 0.0036 | 0.055 ± 0.003 | 0.051 ± 0.003
4 | CC#N [acetonitrile] + CCCCCCCCCCCCCCCCCCCCO | 0.309 ± 0.019 | 0.265 ± 0.016 | 0.229 ± 0.014 | 0.197 ± 0.012 | – | – | – | – | – | –
5 | CCCCCl [1-chlorobutane] + CCCCCCCCCCCCCCCCCCCCO | 0.0991 ± 0.0059 | 0.0954 ± 0.0057 | 0.0919 ± 0.0055 | 0.0886 ± 0.0053 | – | – | – | – | – | –
6 | CCOC(C)=O [ethyl acetate] + CCCCCCCCCCCCCCCCCCCCO | 0.123 ± 0.0074 | 0.11 ± 0.0066 | 0.099 ± 0.0059 | 0.0888 ± 0.0053 | – | – | – | – | – | –
7 | CC(C)=O [acetone] + CCCCCCCCCCCCCCCCCCO | 0.0179 ± 0.0011 | 0.0174 ± 0.001 | 0.017 ± 0.001 | 0.0166 ± 0.001 | 0.0185 ± 0.0011 | – | – | – | – | –
8 | C1CCCCC1 [cyclohexane] + CCCCCCCCCCCCCCCCCCCCO | 0.108 ± 0.0065 | 0.102 ± 0.0061 | 0.0969 ± 0.0058 | 0.0918 ± 0.0055 | – | – | – | – | – | –
9 | C=CCCCCC [1-heptene] + CCCCCCCCCCCCCCCCCCO | – | – | – | – | – | 0.0431 ± 0.0026 | 0.0417 ± 0.0025 | 0.0407 ± 0.0024 | 0.0397 ± 0.0024 | 0.0388 ± 0.0023
10 | ClCCl [dichloromethane] + CCCCCCCCCCCCCCCCCCO | – | – | – | – | – | 0.0262 ± 0.0016 | 0.0233 ± 0.0014 | 0.0212 ± 0.0013 | 0.0194 ± 0.0012 | 0.0178 ± 0.0011
11 | CCCCO [butan-1-ol] + CCCCCCCCCCCCCCCCCCO | – | – | – | – | – | 0.154 ± 0.0092 | 0.136 ± 0.008 | 0.121 ± 0.0073 | 0.11 ± 0.0066 | 0.0992 ± 0.006
12 | CCCCOC(C)=O [butyl ethanoate] + CCCCCCCCCCCCCCCCCCCCO | 0.14 ± 0.0084 | 0.131 ± 0.0079 | 0.123 ± 0.0074 | 0.115 ± 0.0069 | – | – | – | – | – | –
13 | CCCCC [pentane] + CCCCCCCCCCCCCCCCCCO | 0.0272 ± 0.0016 | 0.0259 ± 0.0016 | 0.0243 ± 0.0015 | 0.0231 ± 0.0014 | 0.0292 ± 0.0018 | – | – | – | – | –
14 | CC#N [acetonitrile] + CCCCCCCCCCCCCCCCCCO | 0.0969 ± 0.0058 | 0.0901 ± 0.0054 | 0.0832 ± 0.005 | 0.0766 ± 0.0046 | 0.108 ± 0.0065 | – | – | – | – | –
15 | Cc1ccccc1 [toluene] + CCCCCCCCCCCCCCCCCCO | 0.0355 ± 0.0021 | 0.0343 ± 0.0021 | 0.0331 ± 0.002 | 0.0318 ± 0.0019 | 0.0372 ± 0.0022 | – | – | – | – | –
16 | CCCCCl [1-chlorobutane] + CCCCCCCCCCCCCCCCCCO | 0.036 ± 0.0022 | 0.0338 ± 0.002 | 0.0321 ± 0.0019 | 0.03 ± 0.0018 | 0.0389 ± 0.0023 | – | – | – | – | –
17 | CC(C)=O [acetone] + CCCCCCCCCCCCCCCCCCCCO | 0.0557 ± 0.0033 | 0.0572 ± 0.0034 | 0.0587 ± 0.0035 | 0.0602 ± 0.0036 | – | – | – | – | – | –
18 | CO [methanol] + CCCCCCCCCCCCCCCCCCCCO | 0.122 ± 0.0073 | 0.0967 ± 0.0058 | 0.0737 ± 0.0044 | 0.0574 ± 0.0034 | – | – | – | – | – | –
19 | CCOCC [diethyl ether] + CCCCCCCCCCCCCCCCCCO | 0.0235 ± 0.0014 | 0.0219 ± 0.0013 | 0.0204 ± 0.0012 | 0.019 ± 0.001 | 0.0257 ± 0.0015 | – | – | – | – | –
20 | CCCCCC [hexane] + CCCCCCCCCCCCCCCCCCO | 0.0468 ± 0.0028 | 0.0411 ± 0.0025 | 0.0359 ± 0.0022 | 0.0315 ± 0.0019 | 0.0551 ± 0.0033 | – | – | – | – | –
21 | ClC(Cl)Cl [trichloromethane] + CCCCCCCCCCCCCCCCCCO | 0.022 ± 0.0013 | 0.0214 ± 0.0013 | 0.0208 ± 0.0012 | 0.0202 ± 0.0012 | 0.0227 ± 0.0014 | – | – | – | – | –
